From ChEMBL document CHEMBL4229454, “Structural optimization and in vitro profiling of N-phenylbenzamide-based farnesoid X receptor antagonists” (Bioorg Med Chem, 2018) come the findings set out here.

For data set [1], the system named is HepG2. Briefly: Cytotoxicity against human HepG2 cells assessed as reduction in cell viability at 100 uM after 48 hrs by WST1 assay relative to control. Type of data set: cell-based. The settings on record: hepg2, 48 h. A general note: Formazan colour is commonly taken as a measure of viable cells.
Data set [2] has as its target Luciferin 4-monooxygenase (Photinus pyralis) (UniProt P08659). Briefly: Inhibition of GW4064-induced firefly luciferase expression in HeLa cells co-expressing full length human FXR, BSEP-pGL3 and pSG5-hRXR at 1 uM treated at 23 hrs post GW4064 treatment for 1 hr by luminescence assay. Type of data set: cell-based.
Data set [3] deals with HepG2. Description: Cytotoxicity against human HepG2 cells assessed as reduction in cell viability up to 100 uM after 48 hrs by WST1 assay. Type of data set: cell-based. The note with it: hepg2, 48 h.
For data set [4], the system named is HeLa. Briefly: Cytotoxicity against human HeLa cells co-expressing full length human FXR, BSEP-pGL3 and pSG5-hRXR assessed as reduction in cell viability up to 50 uM after 48 hrs by WST1 assay. Type of data set: ADME, cell-based.
In data set [5] the test system is HEK293. Description: Cytotoxicity against HEK293 cells assessed as reduction in cell viability at >10 uM after 48 hrs by WST1 assay. Type of data set: cell-based. The note with it: human, hek293, 48 h.
Data set [6] can be described thus: Metabolic stability in Sprague-Dawley rat liver microsomes assessed as parent compound remaining at 10 uM in presence of NADPH measured immediately by HPLC analysis. The note with it: read-out: Stability. Type of data set: ADME, microsome.
Data set [7] can be described thus: Metabolic stability in Sprague-Dawley rat liver microsomes assessed as parent compound remaining at 10 uM in presence of NADPH measured after 15 mins by HPLC analysis. Type of data set: ADME, microsome. The note with it: read-out: Stability. (In general: Liver microsomes are a subcellular fraction often used to study metabolism.)
Data set [8] is described as follows: Metabolic stability in Sprague-Dawley rat liver microsomes assessed as parent compound remaining at 10 uM in presence of NADPH measured after 30 mins by HPLC analysis. Type of data set: ADME, microsome. The settings on record: read-out: Stability.
Data set [9] in a line: Metabolic stability in Sprague-Dawley rat liver microsomes assessed as parent compound remaining at 10 uM in presence of NADPH measured after 60 mins by HPLC analysis. Type of data set: ADME, microsome. The settings on record: read-out: Stability.
A short description of data set [10]: Aqueous solubility of the compound. Type of data set: physicochemical. The note with it: water.
In data set [11] the target is T1, Peroxisome proliferator-activated receptor gamma (Homo sapiens) (UniProt P37231).
T1 sequence (whole entry): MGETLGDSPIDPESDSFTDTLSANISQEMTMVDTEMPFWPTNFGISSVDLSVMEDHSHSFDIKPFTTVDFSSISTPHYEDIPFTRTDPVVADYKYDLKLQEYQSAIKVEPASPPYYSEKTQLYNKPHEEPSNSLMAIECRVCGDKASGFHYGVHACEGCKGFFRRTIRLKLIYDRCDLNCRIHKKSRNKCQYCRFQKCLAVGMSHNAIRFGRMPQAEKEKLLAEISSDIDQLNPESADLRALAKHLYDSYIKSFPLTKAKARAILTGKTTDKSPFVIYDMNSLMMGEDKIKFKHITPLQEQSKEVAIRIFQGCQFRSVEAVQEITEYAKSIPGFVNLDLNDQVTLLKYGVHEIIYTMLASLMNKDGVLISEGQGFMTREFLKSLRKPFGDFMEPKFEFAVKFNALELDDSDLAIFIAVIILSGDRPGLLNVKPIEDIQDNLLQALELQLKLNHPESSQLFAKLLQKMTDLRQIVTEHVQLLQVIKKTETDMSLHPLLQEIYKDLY
Briefly: Agonist activity at GAL4-fused human PPARgamma LBD expressed in HEK293T cells at 1 uM after 12 to 14 hrs by luciferase reporter gene assay. Type of data set: cell-based. (A reporter such as luciferase makes a cellular process visible.)

Data set [12] addresses T2, Nuclear receptor subfamily 1 group I member 3 (Homo sapiens, UniProt Q14994).
T2 sequence (Q14994 whole entry): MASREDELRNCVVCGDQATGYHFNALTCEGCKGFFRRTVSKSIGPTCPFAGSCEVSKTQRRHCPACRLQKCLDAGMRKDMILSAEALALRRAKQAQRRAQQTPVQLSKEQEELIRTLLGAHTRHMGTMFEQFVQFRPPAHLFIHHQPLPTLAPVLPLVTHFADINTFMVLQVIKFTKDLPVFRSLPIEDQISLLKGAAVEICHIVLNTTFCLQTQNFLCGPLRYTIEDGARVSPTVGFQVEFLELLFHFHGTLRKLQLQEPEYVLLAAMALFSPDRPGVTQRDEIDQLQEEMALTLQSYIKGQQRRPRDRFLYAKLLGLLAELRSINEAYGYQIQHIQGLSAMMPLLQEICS
Description: Agonist activity at GAL4-fused human CAR LBD expressed in HEK293T cells at 1 uM after 12 to 14 hrs by luciferase reporter gene assay. Type of data set: cell-based.

Data set [13] has as its target T3, Retinoic acid receptor RXR-alpha (Homo sapiens) (UniProt P19793).
T3 sequence (whole entry): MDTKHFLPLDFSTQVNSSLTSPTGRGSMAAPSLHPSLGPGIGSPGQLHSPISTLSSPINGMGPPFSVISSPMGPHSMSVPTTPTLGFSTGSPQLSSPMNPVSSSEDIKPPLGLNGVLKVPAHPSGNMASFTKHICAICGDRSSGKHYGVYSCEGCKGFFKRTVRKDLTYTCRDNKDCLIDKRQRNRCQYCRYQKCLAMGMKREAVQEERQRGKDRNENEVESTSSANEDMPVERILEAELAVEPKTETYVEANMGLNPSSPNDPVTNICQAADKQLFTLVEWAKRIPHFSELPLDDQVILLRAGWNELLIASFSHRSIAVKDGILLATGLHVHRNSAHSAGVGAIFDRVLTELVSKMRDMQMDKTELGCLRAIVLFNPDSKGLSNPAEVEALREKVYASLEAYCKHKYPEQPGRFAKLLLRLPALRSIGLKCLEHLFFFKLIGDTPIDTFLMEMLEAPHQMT
Description: Agonist activity at GAL4-fused human RXRalpha LBD expressed in HEK293T cells at 1 uM after 12 to 14 hrs by luciferase reporter gene assay. Type of data set: cell-based.

The target in data set [14] is T4, Oxysterols receptor LXR-alpha (Homo sapiens) (UniProt Q13133).
T4 sequence (whole entry): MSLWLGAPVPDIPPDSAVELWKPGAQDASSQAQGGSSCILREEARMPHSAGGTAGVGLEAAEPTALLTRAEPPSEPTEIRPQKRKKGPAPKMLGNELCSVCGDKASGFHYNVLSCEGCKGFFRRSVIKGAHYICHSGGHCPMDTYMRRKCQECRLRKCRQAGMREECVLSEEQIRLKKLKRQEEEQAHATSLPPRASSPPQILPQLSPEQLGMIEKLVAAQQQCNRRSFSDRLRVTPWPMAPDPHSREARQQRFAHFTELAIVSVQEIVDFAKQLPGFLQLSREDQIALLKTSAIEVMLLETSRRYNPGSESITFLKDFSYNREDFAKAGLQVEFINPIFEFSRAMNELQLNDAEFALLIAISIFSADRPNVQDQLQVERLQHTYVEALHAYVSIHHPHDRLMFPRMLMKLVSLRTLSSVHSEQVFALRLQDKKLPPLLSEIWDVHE
Description: Agonist activity at GAL4-fused human LXRalpha LBD expressed in HEK293T cells at 1 uM after 12 to 14 hrs by luciferase reporter gene assay. Type of data set: cell-based.

The target of data set [15] is T1, Peroxisome proliferator-activated receptor gamma (Homo sapiens). Description: Antagonist activity at GAL4-fused human PPARgamma LBD expressed in HEK293T cells at 1 uM after 12 to 14 hrs by luciferase reporter gene assay. Type of data set: cell-based.
The target in data set [16] is T2, Nuclear receptor subfamily 1 group I member 3. Description: Antagonist activity at GAL4-fused human CAR LBD expressed in HEK293T cells at 1 uM after 12 to 14 hrs by luciferase reporter gene assay. Type of data set: cell-based.
In data set [17] the target is T3, Retinoic acid receptor RXR-alpha (Homo sapiens). Description: Antagonist activity at GAL4-fused human RXRalpha LBD expressed in HEK293T cells at 1 uM after 12 to 14 hrs by luciferase reporter gene assay. Type of data set: cell-based.
For data set [18], the target named is T4, Oxysterols receptor LXR-alpha (Homo sapiens). Briefly: Antagonist activity at GAL4-fused human LXRalpha LBD expressed in HEK293T cells at 1 uM after 12 to 14 hrs by luciferase reporter gene assay. Type of data set: cell-based.
Data set [19] has as its target T5, Bile acid receptor (Homo sapiens) (UniProt Q96RI1).
T5 sequence (whole entry): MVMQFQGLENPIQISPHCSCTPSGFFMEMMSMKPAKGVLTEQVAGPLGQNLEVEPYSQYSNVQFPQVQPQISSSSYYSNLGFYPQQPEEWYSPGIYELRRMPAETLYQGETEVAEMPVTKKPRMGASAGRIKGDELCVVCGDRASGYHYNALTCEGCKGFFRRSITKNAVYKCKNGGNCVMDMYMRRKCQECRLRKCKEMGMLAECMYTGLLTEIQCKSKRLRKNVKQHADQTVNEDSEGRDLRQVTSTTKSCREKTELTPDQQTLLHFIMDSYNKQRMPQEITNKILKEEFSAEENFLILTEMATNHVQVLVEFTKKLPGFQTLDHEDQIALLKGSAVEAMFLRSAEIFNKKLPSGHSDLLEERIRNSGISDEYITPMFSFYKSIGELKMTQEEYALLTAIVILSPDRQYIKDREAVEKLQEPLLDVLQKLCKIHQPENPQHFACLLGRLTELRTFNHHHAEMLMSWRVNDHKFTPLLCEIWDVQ
Briefly: Antagonist activity at full length human FXR expressed in HeLa cells co-expressing BSEP-pGL3/pSG5-hRXR assessed as inhibition of GW4064-induced receptor activation at 30 uM after 24 hrs by luciferase reporter gene assay. Type of data set: cell-based.

Structures are written as SMILES. In brackets after ≈: the same amount, converted by molar mass. Activity calls are given as the source filed them. The calls are words filed in the database; no cut-off is given here.

Chain of Luciferin 4-monooxygenase (Photinus pyralis) (P08659 whole entry): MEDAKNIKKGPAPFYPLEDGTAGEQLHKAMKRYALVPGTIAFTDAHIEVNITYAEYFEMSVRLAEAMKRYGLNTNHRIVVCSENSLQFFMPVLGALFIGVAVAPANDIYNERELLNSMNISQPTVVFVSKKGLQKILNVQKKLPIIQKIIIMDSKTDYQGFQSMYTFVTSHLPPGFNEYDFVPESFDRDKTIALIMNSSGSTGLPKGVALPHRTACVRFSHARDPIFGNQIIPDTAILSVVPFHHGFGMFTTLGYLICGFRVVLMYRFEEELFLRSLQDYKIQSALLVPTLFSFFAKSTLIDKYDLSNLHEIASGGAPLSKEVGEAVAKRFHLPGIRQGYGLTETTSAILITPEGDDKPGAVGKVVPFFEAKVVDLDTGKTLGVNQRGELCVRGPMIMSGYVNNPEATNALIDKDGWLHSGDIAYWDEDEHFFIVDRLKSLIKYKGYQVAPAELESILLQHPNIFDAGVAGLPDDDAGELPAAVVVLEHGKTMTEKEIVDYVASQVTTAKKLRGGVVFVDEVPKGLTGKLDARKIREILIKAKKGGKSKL

With `COc1cc(C(=O)Nc2ccc(CC(=O)O)cc2)ccc1C(C)(C)C`, in data set [1], the Activity stood at 112%.
Still for that read-out and setting: then `CC(C)(C)c1ccc(C(=O)Nc2ccccc2CC(=O)O)cc1`, with 118%.
Turning to `COc1cc(C(C)(C)C)ccc1C(=O)Nc1ccc(CC(=O)O)cc1`, the inhibition entry in data set [2], in data set [15], in data set [17] and in [18] was “inactive” in each case. The Activity result in [3] is recorded as “Non-Toxic”; in [4], “Non-Toxic”; in data set [5] it was “Non-Toxic”; in data set [12] it was “Not Active”. Further, the remaining at 0 min, 10 µM in data set [6] is 100%. Moreover, the remaining at 0.25 h, 10 µM in [7] worked out at 98%. In addition, in data set [8], the remaining at 0.5 h, 10 µM was 96%. Moreover, in data set [9], the remaining at 1 h, 10 µM was determined as 97%. Besides, in [10], the concentration in solution (solubility) was 16 µg/mL (≈ 46.9 µM). Moreover, the outcome in data set [11], in data set [13] and in [14] was inactive. For the same molecule, in [16], the “inhibition (INH)” value is on record as “Not Active”.
For `O=C(O)Cc1ccc(NC(=O)c2ccccc2-c2ccccc2)cc1`, in data set [19], the inhibition entry was “inactive”.
Same read-out and setting: in the case of `COc1ccc(C(C)(C)C)cc1C(=O)Nc1ccc(CC(=O)O)cc1` it was “inactive”.
As to `CC(C)(C)c1ccc(C(=O)Nc2cccc(CC(=O)O)c2)cc1`, the inhibition entry in [2] is “inactive”.

Usually solubility stands for how much of the substance goes into solution per volume. A high value points to much dissolved substance.
